Results: patent US20240190838A1, “LZK-TARGETING DEGRADERS AND METHODS OF USE” (The U.S.A., as represented by the Secretary, Department of …, priority 2020, published 2024)

Columns and labels:
Format in all cases: cell-based
CAL33 cells [1] = assay: Colony formation assay, CAL33
Experimental: (§1) Crystal violet assays were used to assess relative cell growth and survival after treatment with specific compounds. In general, cells were plated in triplicate in 12-well plates for 24 hours before drug treatments were added using 10% FBS media. The plates were incubated for 14 days, with the media and drug being replaced every 48 hours. The cells were then washed with phosphate-buffered saline and fixed in ice-cold methanol before being stained with 0.5% crystal violet (Sigma-Aldrich) in 25% methanol. Images were taken using a ChemiDoc MP Imaging System (Bio Rad), and for quantification, the crystal violet stain was dissolved in 33% acetic acid, incubated for 20 minutes with shaking, and read at 595 nm using iMark™ Microplate Absorbance Reader (Bio-Rad). Graphs display percent colony formation relative to the DMSO-treated control sample.

BICR56 cells = assay: Colony formation assay, BICR56
Experimental: as §1

LK2 cells = assay: Colony formation assay, LK2
Experimental: as §1

NCI-H520 cells = assay: Colony formation assay, NCI-H520
Experimental: as §1

CAL33 cells [2] = assay: MTS cell viability assay, CAL33
Experimental: A Cell Titer 96 AQueous One Solution Cell Proliferation Assay (Promega) was used for MTS assays following the manufacturer's protocol. […] MTS was added, cells were incubated for two hours, and absorbance was measured at 490 nm using iMark™ Microplate Absorbance Reader (Bio-Rad). Graphs display percent cell viability relative to the DMSO-treated control sample. EC50 values were determined using GraphPad Prism 8.

LZK = molecular target: T1, LZK (Homo sapiens, UniProt O43283); assay: LZK inhibition in cells monitored by downstream JNK phosphorylation (dox-induced LZK); design: V5 (named only in the vector); expressed in transfected cells; host or cells: CAL33 HNSCC cells, lentiviral T-REx system, induced with doxycycline; conditions: for duration of JNK pathway inactivation / time at which LZK activity toward JNK was inhibited: 250 nM; for LZK inhibition in cells, measured by inhibition of downstream JNK pathway activation: dox-inducible LZK in CAL33 cells
T1 sequence (O43283 1-966): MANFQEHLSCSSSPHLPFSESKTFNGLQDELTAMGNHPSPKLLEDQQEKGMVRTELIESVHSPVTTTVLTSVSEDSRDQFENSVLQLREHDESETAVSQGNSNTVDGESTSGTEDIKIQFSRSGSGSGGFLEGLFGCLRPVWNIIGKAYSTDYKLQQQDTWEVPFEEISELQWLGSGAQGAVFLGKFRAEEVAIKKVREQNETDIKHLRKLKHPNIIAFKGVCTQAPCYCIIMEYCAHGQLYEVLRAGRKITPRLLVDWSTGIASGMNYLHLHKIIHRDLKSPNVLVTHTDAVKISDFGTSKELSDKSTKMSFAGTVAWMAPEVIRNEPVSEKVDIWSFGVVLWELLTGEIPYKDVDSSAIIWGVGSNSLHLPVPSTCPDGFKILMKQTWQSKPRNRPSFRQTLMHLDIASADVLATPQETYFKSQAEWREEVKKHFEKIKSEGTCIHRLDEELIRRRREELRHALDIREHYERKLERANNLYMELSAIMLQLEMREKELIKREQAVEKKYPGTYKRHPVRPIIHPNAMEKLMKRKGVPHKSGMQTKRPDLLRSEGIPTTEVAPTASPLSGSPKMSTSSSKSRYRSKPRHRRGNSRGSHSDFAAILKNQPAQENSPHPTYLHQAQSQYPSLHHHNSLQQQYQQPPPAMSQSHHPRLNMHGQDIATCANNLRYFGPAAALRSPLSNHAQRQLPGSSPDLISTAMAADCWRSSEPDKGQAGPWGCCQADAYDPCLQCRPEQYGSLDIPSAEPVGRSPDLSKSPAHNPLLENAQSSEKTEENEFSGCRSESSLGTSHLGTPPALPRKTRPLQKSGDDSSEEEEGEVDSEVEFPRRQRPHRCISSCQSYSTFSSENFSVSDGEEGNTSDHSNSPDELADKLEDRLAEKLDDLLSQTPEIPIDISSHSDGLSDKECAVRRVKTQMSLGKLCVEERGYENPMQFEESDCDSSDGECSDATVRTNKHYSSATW
Text: The ViraPower HiPerform T-REx Gateway Expression System (Invitrogen) was used to generate cells with tetracycline-inducible expression of LZK. In brief, wild-type (WT) or drug-resistant mutant (Q240S) LZK (cloned into pLenti6.3/TO/V5-DEST vector) and pLenti3.3/TR (for tetracycline repressor expression) were transfected into 293FT cells using Lipofectamine 2000 to generate lentiviral stock. Cell lines were generated by antibiotic selection (blasticidin [Gibco] and geneticin [Gibco]). Doxycycline (Sigma-Aldrich) was used at 1 μg/mL to induce LZK expression.
Generally, cells were plated in six-well or 35-mm plates for 24 hours, after which doxycycline was added or treatment with specific inhibitor was administered using […] for 48 hours. After appropriate treatment time, cells were washed with ice-cold phosphate-buffered saline without Ca and Mg (Quality Biological) and then lysed on ice with RIPA buffer (50 mM NaCl, 1.0% o IGEPAL® CA-630, 0.5% o sodium deoxycholate, 0.10% SDS, 50 mM Tris, pH 8.0) (Sigma-Aldrich) supplemented with protease inhibitor tablet (Sigma-Aldrich) and phosphatase inhibitor cocktails 2 and 3 (Sigma-Aldrich) followed by centrifugation at 15,000 rpm for 10 minutes at 4° C. Protein concentrations were determined from the cell lysate by using 660 nm Protein Assay Reagent (Pierce). Cell extracts were denatured, subjected to SDS-PAGE, transferred to PVDF membranes (Bio-Rad) and blocked for 2 hours using 5 bovine serum albumin (BSA) in phosphate-buffered saline and 0.10 Tween® 20 (PBS-T). The membranes were incubated with the specific antibodies overnight in […] at 4° C. followed by a 1 hour incubation with the appropriate horseradish peroxidase-conjugated secondary antibodies and signal was detected by chemiluminescence (Thermo Fisher).
A PathScan® Phospho-SAPK/JNK (Thr183/Tyr185) Sandwich ELISA Assay (Cell Signaling Technology) was used for ELISA assays following the manufacturer's protocol. In general, 500,000 cells were plated and treated with doxycycline the following day where appropriate and incubated at 37° C. for 48 hours. Cells were treated with the drug compound or control in 5% FBS media for 1 hour. After appropriate treatment time, cells were lysed on ice with 1x Cell Lysis Buffer (Cell Signaling Technology) supplemented with phosphatase and protease inhibitors (Sigma). Each diluted cell lysate was added to Phospho-SAPK/JNK (Thr183/Tyr185)Rabbit mAb Coated microwells in triplicate and incubated overnight at 4° C. Samples were treated with the following antibodies and incubated at 37° C. for 1 hour and 30 minutes, respectively: Detection Antibody and HRP-Linked secondary antibody. Samples were washed between treatments using 1× Wash Buffer according to the manufacturer's protocol. TMB substrate was added to each well and incubated at 37° C. for 10 minutes. Following this, STOPsolution was added to each well and absorbance was measured at 450 nm using iMark™ Microplate Absorbance Reader (Bio-Rad). Graphs display relative phospho-JNK levels.

[3] = LZK inhibitor 2, concentration not stated

Question: CC(=O)N1CCC(c2cc(Nc3cc(C#N)ccn3)nc(N3CCC(F)(F)C3)c2)CC1 [LZK inhibitor 2] was tested. Which colony formation (CAL33 cells [1]; [3]) did it give?
Answer: The colony formation was “suppressed colony formation”.

Question: And the colony formation (BICR56 cells; [3])?
Answer: The colony formation was “suppressed colony formation”.

Question: And the LSCC cell growth (LK2 cells; 1 μM)?
Answer: Its LSCC cell growth is “significantly decreased LSCC cell growth”.

Question: And the LSCC cell growth (NCI-H520 cells; 1 μM)?
Answer: The LSCC cell growth was “significantly decreased LSCC cell growth”.

Question: And the “rescue of drug-induced loss of viability by LZK^Q240S expression” value (CAL33 cells [2]; 72-hour MTS assay)?
Answer: The value was “rescued decreases in viability”.

Question: And the “duration of JNK pathway inactivation” value (LZK)?
Answer: Its value is 72 h.

Question: What about the “time at which LZK activity toward JNK was inhibited” value (LZK) of the same compound?
Answer: Its value is “five”.

Question: What about the “concentration at which LZK activity was suppressed” value (LZK; 1 hour) of the same compound?
Answer: Its value is 100 nM.

Question: What about the “LZK inhibition in cells, measured by inhibition of downstream JNK pathway activation” value (LZK) of the same compound?
Answer: The value was “potent LZK inhibitor”.

Question: And the “JNK signaling inhibition compared with GNE-3511” value (LZK; one hour)?
Answer: The value was “inhibited JNK signaling at lower concentrations than GNE-3511”.

Question: Which results are given for N#Cc1ccnc(Nc2cc(C3CCN(C4COC4)CC3)cc(N3CCC(F)(F)C3)n2)c1 [GNE-3511]?
Answer: reduction in colony formation (CAL33 cells [1]; 200 nM, 14 days): ≥ 80%; reduction in colony formation (BICR56 cells; 200 nM, 14 days): ≥ 80%; reduction in colony formation (LK2 cells; 500 nM): 45%; reduction in colony formation (NCI-H520 cells; 500 nM): 55%; IC50 (CAL33 cells [2]; Homo sapiens, CAL-33, 72 hours, read-out: IC50, viability in short-term MTS assay): 688 ± 114 nM; LZK activity, as monitored by downstream JNK phosphorylation (LZK; 100 nM to 5 μM at 1 hour): inhibited LZK activity; duration of JNK pathway inactivation (LZK): up to 72 hours; time at which LZK activity toward JNK was inhibited (LZK): ≤ 15 min; LZK inhibition in cells, measured by inhibition of downstream JNK pathway activation (LZK): potent LZK inhibitor in cells

Question: Which results are given for Cc1ncsc1-c1ccc([C@H](C)NC(=O)[C@@H]2C[C@@H](O)CN2C(=O)[C@@H](NC(=O)CCCCCCC(=O)N2CCC(c3cc(Nc4cc(C#N)ccn4)nc(N4CCC(F)(F)C4)c3)CC2)C(C)(C)C)cc1 [Compound 3]?
Answer: clonogenic growth (CAL33 cells [1]; 1 μM for 14 days): significant decreases in clonogenic growth; colony formation (CAL33 cells [1]; 2.5 μM): almost complete loss of colony formation; clonogenic growth (BICR56 cells; 1 μM for 14 days): significant decreases in clonogenic growth; colony formation (BICR56 cells; 2.5 μM): almost complete loss of colony formation; LSCC cell growth (LK2 cells; 2.5 μM): significantly decreased LSCC cell growth; LSCC cell growth (NCI-H520 cells; 2.5 μM): significantly decreased LSCC cell growth; short-term cell viability (CAL33 cells [2]): reduced; JNK signaling inhibition by targeted degraders (LZK; CAL33 cells induced with doxycycline, 0-10 μM): inhibited JNK signaling
